Results taken from the NIST ThermoML archive (doi:10.1016/j.tca.2015.09.017).
Numbers after ± are expanded uncertainties.

Details: 101.33 kPa, Liquid, Photoacoustic measurements

thermal diffusivity (298.15 K) [m2/s] | thermal diffusivity (308.15 K) [m2/s] | thermal diffusivity (318.15 K) [m2/s] | thermal diffusivity (328.15 K) [m2/s] | thermal diffusivity (338.15 K) [m2/s] | Structure (SMILES)
1.49e-07 ± 6e-09 | 1.53e-07 ± 6e-09 | 1.56e-07 ± 6e-09 | 1.59e-07 ± 6e-09 | 1.61e-07 ± 6e-09 | O [water]
9.84e-08 ± 3.9e-09 | 9.73e-08 ± 3.9e-09 | 9.68e-08 ± 3.9e-09 | 9.49e-08 ± 3.8e-09 | 9.42e-08 ± 3.8e-09 | OCCO [1,2-ethanediol]
